Consider ten molecules from patent US20260274892A1, “MACROCYCLIC BROAD SPECTRUM ANTIBIOTICS” (RQx Pharmaceuticals, Inc., priority 2017, published 2026).

SMILES strings stand for the structures.

For one test, the system named is Escherichia coli ATCC 25922. Nature of the test: Minimum inhibitory concentration (MIC), CLSI broth micro-dilution, E. coli. Format: cell-based. To be noted: Escherichia coli, ATCC25922, 22 h, Table 6, cation adjusted Mueller Hinton Broth + 0.002% Tween-80, 35° C. The essentials:
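Colonies grown 20 h at 35° C on Trypticase Soy agar (MRSA) or Luria agar (E. coli) were suspended in cation-adjusted Mueller Hinton broth with 0.002% Tween-80. Suspensions were added at OD600 0.0005 to 10-point twofold compound dilutions, then incubated 22 h at 35° C.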
On the technique in general: Broth dilution looks for growth in wells or tubes with falling amounts of substance.
As usually defined, the MIC is the smallest concentration in the dilution series that meets the test's criterion for growth inhibition. Turning to `Cc1nc(-c2ccc(OCCC(C)(C)C)cn2)nc(N)c1C(=O)N[C@@H](CCN)C(=O)N(C)[C@@H]1C(=O)N[C@@H](C)C(=O)N[C@H](C(=O)NCC#N)Cc2ccc(OCCN)c(c2)-c2cc1ccc2OCCN` (racemic) [Compound 534, rac-(8S,11S,14S)-3,18-bis(2-aminoethoxy)-N-(cyanomethyl)-11-methyl-14-[methyl-[rac-(2S)-4-amino-2-[[4-amino-2-[5-(3,3-dimethylbutoxy)-2-pyridyl]-6-methyl-pyrimidine-5-carbonyl]amino]butanoyl]amino]-10,13-dioxo-9,12-diazatricyclo[13.3.1.12,6]icosa-1(18),2(20),3,5,15(19),16-hexaene-8-carboxamide], the minimal inhibitory concentration (MIC) is 0.5 µM.

Still in this test, the particulars now being: Escherichia coli, ATCC25922, 22 h, Table 7, cation adjusted Mueller Hinton Broth + 0.002% Tween-80, 35° C.
As for `Cc1nc(-c2ccc(C(C)(C)C)cc2)nc(C)c1C(=O)N[C@@H](CCN)C(=O)N(C)[C@@H]1C(=O)N[C@@H](C)C(=O)N[C@H](C(=O)NCC#N)Cc2ccc(O)c(c2)-c2cc1ccc2OCCNCCN` (racemic) [Compound 601, rac-(8S,11S,14S)-18-[2-(2-aminoethylamino)ethoxy]-N-(cyanomethyl)-3-hydroxy-11-methyl-14-[methyl-[rac-(2S)-4-amino-2-[[2-(4-tert-butylphenyl)-4,6-dimethyl-pyrimidine-5-carbonyl]amino]butanoyl]amino]-10,13-dioxo-9,12-diazatricyclo[13.3.1.12,6]icosa-1(18),2(20),3,5,15(19),16-hexaene-8-carboxamide], the MIC was 0.5 µM.
On the same count and under the same terms, for `CC(=O)Nc1cc2cc(c1O)-c1cc(ccc1OCCN)[C@H](N(C)C(=O)[C@H](CCN)NC(=O)c1c(C)nc(-c3ccc(C(C)(C)C)cc3)nc1C)C(=O)N[C@@H](C)C(=O)N[C@H](C(=O)NCC#N)C2` [Compound 559, (4S,7S,10S)-2^5-acetamido-10-((S)-4-amino-2-(2-(4-(tert-butyl)phenyl)-4,6-dimethylpyrimidine-5-carboxamido)-N-methylbutanamido)-1^6-(2-aminoethoxy)-N-(cyanomethyl)-2^6-hydroxy-7-methyl-6,9-dioxo-5,8-diaza-1,2(1,3)-dibenzenacyclodecaphane-4-carboxamide] the value was 0.38 µM.
Same read-out and setting: the result for `COc1c(OC[C@H](O)CN)cc2cc1-c1cc(cc(OC[C@H](O)CN)c1OC)[C@H](N(C)C(=O)[C@H](CNS(N)(=O)=O)NC(=O)c1c(C)nc(-c3ccc(C(C)(C)C)cc3)nc1C)C(=O)N[C@@H](C)C(=O)N[C@H](C(=O)NCC#N)C2` (racemic) [Compound 593, rac-(8S,11S,14S)-N-(cyanomethyl)-3,18-dimethoxy-11-methyl-14-[methyl-[rac-(2S)-2-[[2-(4-tert-butylphenyl)-4,6-dimethyl-pyrimidine-5-carbonyl]amino]-3-(sulfamoylamino)propanoyl]amino]-10,13-dioxo-4,17-bis[rac-(2R)-3-amino-2-hydroxy-propoxy]-9,12-diazatricyclo[13.3.1.12,6]icosa-1(18),2(20),3,5,15(19),16-hexaene-8-carboxamide] reads 1.5 µM; that for `Cc1nc(-c2ccc(C(C)(C)C)cc2)nc(C)c1C(=O)N[C@@H](CNS(N)(=O)=O)C(=O)N(C)[C@@H]1C(=O)N[C@@H](C)C(=O)N[C@H](C(=O)NCC#N)Cc2ccc(OCCN)c(c2)-c2cc1ccc2OCCN` (racemic) [Compound 572, rac-(8S,11S,14S)-3,18-bis(2-aminoethoxy)-N-(cyanomethyl)-11-methyl-14-[methyl-[rac-(2S)-2-[[2-(4-tert-butylphenyl)-4,6-dimethyl-pyrimidine-5-carbonyl]amino]-3-(sulfamoylamino)propanoyl]amino]-10,13-dioxo-9,12-diazatricyclo[13.3.1.12,6]icosa-1(18),2(20),3,5,15(19),16-hexaene-8-carboxamide], 0.28 µM; that for `Cc1nc(-c2ccc(C(C)(C)C)cc2)nc(C)c1C(=O)N[C@@H](CCN)C(=O)N(C)[C@@H]1C(=O)N[C@@H](C)C(=O)N[C@H](C(=O)NCC#N)Cc2cc(F)c(O)c(c2)-c2cc1ccc2OCCN` [Compound 560, (4S,7S,10S)-10-((S)-4-amino-2-(2-(4-(tert-butyl)phenyl)-4,6-dimethylpyrimidine-5-carboxamido)-N-methylbutanamido)-1^6-(2-aminoethoxy)-N-(cyanomethyl)-2^5-fluoro-2^6-hydroxy-7-methyl-6,9-dioxo-5,8-diaza-1,2(1,3)-dibenzenacyclodecaphane-4-carboxamide], 0.25 µM.
On the same count and under the same terms, for `Cc1nc(-c2ccc(C(C)(C)C)cc2)nc(C)c1C(=O)N[C@@H](CCN)C(=O)N(C)[C@@H]1C(=O)N[C@@H](C)C(=O)N[C@H](C(=O)NCC#N)Cc2cc(OCCN)c(O)c(c2)-c2cc1ccc2O` (racemic) [Compound 561, (4S,7S,10S)-10-((S)-4-amino-2-(2-(4-(tert-butyl)phenyl)-4,6-dimethylpyrimidine-5-carboxamido)-N-methylbutanamido)-25-(2-aminoethoxy)-N-(cyanomethyl)-16,26-dihydroxy-7-methyl-6,9-dioxo-5,8-diaza-1,2(1,3)-dibenzenacyclodecaphane-4-carboxamide] the value was 0.75 µM.

Still in this test, the particulars now being: Escherichia coli, ATCC25922, Table 6, cation adjusted Mueller Hinton Broth + 0.002% Tween-80, 35° C., 22 hours.
With `C[C@@H]1NC(=O)[C@@H](N(C)C(=O)[C@H](CCN)NC(=O)c2cc([N+](=O)[O-])c(-c3ccc(C(C)(C)C)cc3)nc2N)c2ccc(OCCN)c(c2)-c2cc(ccc2OCCN)C[C@@H](C(=O)NCC#N)NC1=O` (racemic) [Compound 415, rac-(8S,11S,14S)-3,18-bis(2-aminoethoxy)-N-(cyanomethyl)-11-methyl-14-[methyl-[rac-(2S)-4-amino-2-[[2-amino-6-(4-tert-butylphenyl)-5-nitro-pyridine-3-carbonyl]amino]butanoyl]amino]-10,13-dioxo-9,12-diazatricyclo[13.3.1.12,6]icosa-1(18),2(20),3,5,15(19),16-hexaene-8-carboxamide], the MIC came to 1.5 µM.
As to `Cc1c(Oc2ccc(C(C)(C)C)cc2)ccc(C(=O)N[C@@H](CCN)C(=O)N(C)[C@@H]2C(=O)N[C@@H](C)C(=O)N[C@H](C(=O)NCC#N)Cc3ccc(OCCN)c(c3)-c3cc2ccc3OCCN)c1C` (racemic) [Compound 374, rac-(8S,11S,14S)-3,18-bis(2-aminoethoxy)-N-(cyanomethyl)-11-methyl-14-[methyl-[rac-(2S)-4-amino-2-[[4-(4-tert-butylphenoxy)-2,3-dimethyl-benzoyl]amino]butanoyl]amino]-10,13-dioxo-9,12-diazatricyclo[13.3.1.12,6]icosa-1(18),2(20),3,5,15(19),16-hexaene-8-carboxamide], the MIC was 0.25 µM.
The same measure, in the same setting: for `Cc1nc(-c2ccc(C(C)(C)C)cc2)ncc1C(=O)N[C@@H](CNC(=O)CN)C(=O)N(C)[C@@H]1C(=O)N[C@@H](C)C(=O)N[C@H](C(=O)NCC#N)Cc2ccc(OCCN)c(c2)-c2cc1ccc2OCCN` (racemic) [Compound 491, rac-(8S,11S,14S)-3,18-bis(2-aminoethoxy)-N-(cyanomethyl)-11-methyl-14-[methyl-[rac-(2S)-3-[(2-aminoacetyl)amino]-2-[[2-(4-tert-butylphenyl)-4-methyl-pyrimidine-5-carbonyl]amino]propanoyl]amino]-10,13-dioxo-9,12-diazatricyclo[13.3.1.12,6]icosa-1(18),2(20),3,5,15(19),16-hexaene-8-carboxamide] the value was 3.1 µM.
